Patent US20250340519A1, “RADIOLABELLED COMPOUND” (OXFORD UNIVERSITY INNOVATION LIMITED, priority 2018, published 2025)
Several values for one entry are separate records, joined by “and”; a condition that tells them apart may be missing. Equal values may be shown once.

Key:
Panc-1 xenograft = assay: Ex vivo biodistribution in Panc-1 xenograft bearing mice; conditions: Panc-1 xenograft mice, 1 h p.i., individual animals
Capan-1 xenograft = assay: Ex vivo biodistribution in Capan-1 xenograft bearing mice; conditions: for Ex vivo biodistribution Bone / Ex vivo biodistribution Kidney / Ex vivo biodistribution Large intestine / Ex vivo biodistribution Liver / Ex vivo biodistribution Muscle / Ex vivo biodistribution Pancreas / Ex vivo biodistribution Skin / Ex vivo biodistribution Small intestine / Ex vivo biodistribution Spleen / Ex vivo biodistribution Stomach: Capan-1 xenograft mice, 1 h p.i., individual animals; for tumour uptake (group mean): Capan-1 xenografts
Method: All animal procedures were performed in accordance with the UK Animals (Scientific Procedures) Act 1986 and with local ethical committee approval. Animals were housed in IVC cages in sex-matched groups up to 5 per cage, in an artificial day-night cycle facility, with ad libitum access to food and water. Tumour xenografts or allografts were generated by subcutaneous injection of PANC-1 or Capan-1 cell suspensions in the hind flank of balb/c nu/nu animals. CaNT xenografts were generated by harvesting CaNT tumours from donor animals, and injecting a tumour homogenate subcutaneously in the flank of wild type CBA/Carl mice. Tumours were irradiated (10 Gy, 2 Gy/min) using a 300 kV X-ray device.
(§1) Dynamic PET/CT images were acquired following an intravenous bolus administration of [^18F]-olaparib. Biodistribution studies, where selected tissues were harvested, were performed 1 h post injection. Some animals were also administered an excess of cold, unlabelled olaparib for evaluating the specificity of tumour uptake. EF5, a hypoxia-selective marker, was injected 2 h before culling of the animal. Digital autoradiography was performed on tumour sections. Image analysis was performed using PMOD.
Cells were harvested using trypsin, washed twice using PBS, and reconstituted in DMEM. Panc-1 or Capan-1 xenograft tumours were established in the right hind flank of female NOD/SCID mice (Charles River, UK) by subcutaneous injection of 1×10^6 cells in PBS:matrigel (150 μL). Tumour volumes (V) were calculated after calliper measurement using the following equation: V=(a^2×b)/2, where a is the width of the tumour and b the length (small and large diameters, respectively). The individual relative tumour volume (RTV) was defined as Vt/Vo, where Vt is the volume at a given time and Vo at the start of treatment. Animals were entered in in vivo studies when their tumour was at least 200 mm^3.
Two hours prior to PET/CT imaging, animals were exposed to X-irradiation of the tumour (10 Gy or sham) (see schedule in FIG. 13). Radiation was delivered using a Gulmay 320 kV X-irradiator; 2.0 Gy/min. Anaesthesia was maintained at 2.5% isoflurane throughout the duration of the irradiation, and animals were allowed to recover. To study the relationship of PARP1 expression, ^18F-olaparib uptake and hypoxia, animals were administered 0.6 μg in 200 μL (0.9% saline) intraperitoneally, one hour prior to PET/CT imaging. Naïve CBA/Carl mice, not bearing tumours, were not irradiated, nor was EF5 administered.
(§2) Dynamic PET/CT images were acquired using a VECTor ^4CT integrated PET/CT system. Mice were anaesthetised by 4% isoflurane gas (0.5 L/min O2) and placed on a custom-built imaging cradle in a prone position. Animals mice were intravenously injected with [^18F]-olaparib or (3-5 MBq, 8-11 GBq/μmol, through a tail vein catheter, and dynamic imaging was performed over 45-60 min after radiolabelled compound administration. PET acquisition (150 s per frame, using list mode acquisition) using an ultra-high resolution rat/mouse 1.8 mm collimator, followed by a cone-beam CT scan (55 kV, 0.19 mA) for anatomical reference and attenuation correction. Anaesthesia was maintained at 2.5% isoflurane throughout the duration of the image acquisition. PET images were reconstructed using U-SPECT-Rec3.22 software (MILabs, Utrecht, The Netherlands), applying a pixel-based algorithm with 8 subsets, 6 iterations and 0.8 mm voxel size for ^18F (energy window settings 477.9-584.1 keV).
(§3) After PET/CT image acquisition, animals were euthanized by cervical dislocation and selected organs, tissues and blood were removed. The amount of radioactivity in each organ was measured using a 2480 WIZARD^2 gamma counter (PerkinElmer). Counts per minute were converted into MBq using a calibration curve generated from known standards. Values were decay-corrected to the time of injection, and the percentage of the injected dose per gram (% ID/g) of each tissue was calculated.

[1] = Ex vivo biodistribution in naïve CBA/Carl mice; conditions: 1 h p.i., individual animals
Method: as §1, §2, §3

Compound: O=C(c1cc(Cc2n[nH]c(=O)c3ccccc23)ccc1[18F])N1CCN(C(=O)C2CC2)CC1 [[^18F]olaparib]
- Ex vivo biodistribution Kidney (Panc-1 xenograft; + IR (10 Gy)): 10.0 % ID/g and 9.25 % ID/g and 10.6 % ID/g
- Ex vivo biodistribution Large intestine (Panc-1 xenograft; + IR (10 Gy)): 27.5 % ID/g and 28.9 % ID/g and 16.2 % ID/g
- Ex vivo biodistribution Liver (Panc-1 xenograft; + IR (10 Gy)): 25.1 % ID/g and 33.8 % ID/g and 45.7 % ID/g
- Ex vivo biodistribution Pancreas (Panc-1 xenograft; + IR (10 Gy)): 13.6 % ID/g and 10.3 % ID/g and 11.4 % ID/g
- Ex vivo biodistribution Spleen (Panc-1 xenograft; + IR (10 Gy)): 45.0 % ID/g and 20.5 % ID/g and 14.3 % ID/g
- Ex vivo biodistribution Stomach (Panc-1 xenograft; + IR (10 Gy)): 4.15 % ID/g and 0.92 % ID/g and 0.87 % ID/g
- Ex vivo biodistribution Bone (Panc-1 xenograft; + block (excess cold olaparib)): 1.06 % ID/g and 0.78 % ID/g and 0.80 % ID/g and 0.46 % ID/g
- Ex vivo biodistribution Kidney (Panc-1 xenograft; + block (excess cold olaparib)): 13.1 % ID/g and 5.09 % ID/g and 3.98 % ID/g and 2.44 % ID/g
- Ex vivo biodistribution Large intestine (Panc-1 xenograft; + block (excess cold olaparib)): 20.1 % ID/g and 13.3 % ID/g and 61.4 % ID/g and 12.7 % ID/g
- Ex vivo biodistribution Liver (Panc-1 xenograft; + block (excess cold olaparib)): 29.1 % ID/g and 32.9 % ID/g and 22.4 % ID/g and 23.1 % ID/g
- Ex vivo biodistribution Pancreas (Panc-1 xenograft; + block (excess cold olaparib)): 1.92 % ID/g and 2.29 % ID/g and 1.91 % ID/g and 1.79 % ID/g
- Ex vivo biodistribution Small intestine (Panc-1 xenograft; + block (excess cold olaparib)): 89.9 % ID/g and 77.2 % ID/g and 96.4 % ID/g and 132 % ID/g
- Ex vivo biodistribution Spleen (Panc-1 xenograft; + block (excess cold olaparib)): 1.62 % ID/g and 1.46 % ID/g and 1.24 % ID/g and 0.69 % ID/g
- Ex vivo biodistribution Stomach (Panc-1 xenograft; + block (excess cold olaparib)): 1.44 % ID/g and 0.79 % ID/g and 0.46 % ID/g and 0.21 % ID/g
- Ex vivo biodistribution Bone (Panc-1 xenograft; tracer alone): 3.38 % ID/g and 4.54 % ID/g
- Ex vivo biodistribution Kidney (Panc-1 xenograft; tracer alone): 10.5 % ID/g and 7.95 % ID/g and 6.02 % ID/g and 7.04 % ID/g and 3.41 % ID/g and 3.66 % ID/g
- Ex vivo biodistribution Large intestine (Panc-1 xenograft; tracer alone): 12.6 % ID/g and 30.5 % ID/g and 80.8 % ID/g and 27.0 % ID/g and 28.9 % ID/g and 6.61 % ID/g
- Ex vivo biodistribution Liver (Panc-1 xenograft; tracer alone): 26.2 % ID/g and 34.6 % ID/g and 27.0 % ID/g and 21.0 % ID/g and 13.5 % ID/g and 18.0 % ID/g
- Ex vivo biodistribution Pancreas (Panc-1 xenograft; tracer alone): 8.49 % ID/g and 9.38 % ID/g and 7.25 % ID/g and 5.52 % ID/g and 2.78 % ID/g and 4.24 % ID/g
- Ex vivo biodistribution Small intestine (Panc-1 xenograft; tracer alone): 54.5 % ID/g and 58.1 % ID/g and 30.6 % ID/g and 31.9 % ID/g and 18.6 % ID/g and 26.6 % ID/g
- Ex vivo biodistribution Spleen (Panc-1 xenograft; tracer alone): 17.5 % ID/g and 13.7 % ID/g and 11.3 % ID/g and 14.0 % ID/g and 7.36 % ID/g and 8.01 % ID/g
- Ex vivo biodistribution Stomach (Panc-1 xenograft; tracer alone): 2.59 % ID/g and 3.53 % ID/g and 1.81 % ID/g and 1.80 % ID/g and 0.55 % ID/g and 0.60 % ID/g
- Ex vivo biodistribution Bone (Capan-1 xenograft; + IR (10 Gy)): 0.31 % ID/g and 0.16 % ID/g and 0.19 % ID/g
- Ex vivo biodistribution Kidney (Capan-1 xenograft; + IR (10 Gy)): 4.66 % ID/g and 1.03 % ID/g and 3.67 % ID/g
- Ex vivo biodistribution Large intestine (Capan-1 xenograft; + IR (10 Gy)): 5.21 % ID/g and 3.30 % ID/g and 5.86 % ID/g
- Ex vivo biodistribution Liver (Capan-1 xenograft; + IR (10 Gy)): 9.16 % ID/g and 5.93 % ID/g and 6.67 % ID/g
- Ex vivo biodistribution Muscle (Capan-1 xenograft; + IR (10 Gy)): 0.63 % ID/g and 0.29 % ID/g and 0.48 % ID/g
- Ex vivo biodistribution Pancreas (Capan-1 xenograft; + IR (10 Gy)): 1.89 % ID/g and 1.59 % ID/g and 1.84 % ID/g
- Ex vivo biodistribution Skin (Capan-1 xenograft; + IR (10 Gy)): 0.67 % ID/g and 0.23 % ID/g and 0.33 % ID/g
- Ex vivo biodistribution Small intestine (Capan-1 xenograft; + IR (10 Gy)): 15.58 % ID/g and 9.80 % ID/g and 19.97 % ID/g
- Ex vivo biodistribution Spleen (Capan-1 xenograft; + IR (10 Gy)): 0.77 % ID/g and 0.73 % ID/g and 0.82 % ID/g
- Ex vivo biodistribution Stomach (Capan-1 xenograft; + IR (10 Gy)): 0.38 % ID/g and 0.36 % ID/g and 0.64 % ID/g
- Ex vivo biodistribution Bone (Capan-1 xenograft; + block (excess cold olaparib)): 2.17 % ID/g and 0.47 % ID/g and 1.27 % ID/g
- Ex vivo biodistribution Kidney (Capan-1 xenograft; + block (excess cold olaparib)): 4.16 % ID/g and 1.26 % ID/g and 3.32 % ID/g
- Ex vivo biodistribution Large intestine (Capan-1 xenograft; + block (excess cold olaparib)): 5.00 % ID/g and 2.91 % ID/g and 4.06 % ID/g
- Ex vivo biodistribution Liver (Capan-1 xenograft; + block (excess cold olaparib)): 9.79 % ID/g and 3.62 % ID/g and 6.88 % ID/g
- Ex vivo biodistribution Muscle (Capan-1 xenograft; + block (excess cold olaparib)): 0.88 % ID/g and 0.28 % ID/g and 0.65 % ID/g
- Ex vivo biodistribution Pancreas (Capan-1 xenograft; + block (excess cold olaparib)): 10.22 % ID/g and 4.56 % ID/g and 10.82 % ID/g
- Ex vivo biodistribution Skin (Capan-1 xenograft; + block (excess cold olaparib)): 1.16 % ID/g
- Ex vivo biodistribution Small intestine (Capan-1 xenograft; + block (excess cold olaparib)): 46.04 % ID/g and 0.45 % ID/g and 11.70 % ID/g
- Ex vivo biodistribution Spleen (Capan-1 xenograft; + block (excess cold olaparib)): 6.43 % ID/g and 2.80 % ID/g and 7.93 % ID/g
- Ex vivo biodistribution Stomach (Capan-1 xenograft; + block (excess cold olaparib)): 0.94 % ID/g and 0.30 % ID/g and 0.49 % ID/g
- Ex vivo biodistribution Bone (Capan-1 xenograft; tracer alone): 1.46 % ID/g and 0.98 % ID/g and 1.26 % ID/g and 3.08 % ID/g
- Ex vivo biodistribution Kidney (Capan-1 xenograft; tracer alone): 4.32 % ID/g and 2.05 % ID/g and 4.91 % ID/g and 5.22 % ID/g
- Ex vivo biodistribution Large intestine (Capan-1 xenograft; tracer alone): 4.99 % ID/g and 4.50 % ID/g and 4.14 % ID/g and 8.14 % ID/g
- Ex vivo biodistribution Liver (Capan-1 xenograft; tracer alone): 11.78 % ID/g and 5.79 % ID/g and 10.32 % ID/g and 22.63 % ID/g
- Ex vivo biodistribution Muscle (Capan-1 xenograft; tracer alone): 0.65 % ID/g and 0.45 % ID/g and 0.63 % ID/g and 1.44 % ID/g
- Ex vivo biodistribution Pancreas (Capan-1 xenograft; tracer alone): 9.32 % ID/g and 8.12 % ID/g and 7.87 % ID/g and 13.16 % ID/g
- Ex vivo biodistribution Skin (Capan-1 xenograft; tracer alone): 0.02 % ID/g and 0.55 % ID/g and 0.77 % ID/g and 1.54 % ID/g
- Ex vivo biodistribution Small intestine (Capan-1 xenograft; tracer alone): 12.27 % ID/g and 17.29 % ID/g and 11.58 % ID/g and 13.70 % ID/g
- Ex vivo biodistribution Spleen (Capan-1 xenograft; tracer alone): 9.84 % ID/g and 6.13 % ID/g and 8.40 % ID/g and 15.10 % ID/g
- Ex vivo biodistribution Stomach (Capan-1 xenograft; tracer alone): 1.55 % ID/g and 0.63 % ID/g and 1.14 % ID/g and 3.42 % ID/g
- tumour uptake (group mean) (Capan-1 xenograft; excess cold olaparib): 1.00±0.17
- tumour uptake (group mean) (Capan-1 xenograft; tracer alone): 2.59±0.32 % ID/g
- Ex vivo biodistribution Blood [1]: 0.11 % ID/g (2×) and 0.14 % ID/g
- Ex vivo biodistribution Fat [1]: 0.05 % ID/g and 0.03 % ID/g and 0.26 % ID/g
- Ex vivo biodistribution Heart [1]: 0.19 % ID/g and 0.17 % ID/g and 0.34 % ID/g
- Ex vivo biodistribution Kidney [1]: 0.59 % ID/g and 0.60 % ID/g and 1.01 % ID/g
- Ex vivo biodistribution Large intestine [1]: 0.92 % ID/g and 1.64 % ID/g and 2.99 % ID/g
- Ex vivo biodistribution Liver [1]: 2.55 % ID/g and 4.02 % ID/g and 5.27 % ID/g
- Ex vivo biodistribution Lung [1]: 0.29 % ID/g and 0.19 % ID/g and 0.34 % ID/g
- Ex vivo biodistribution Muscle [1]: 0.20 % ID/g and 0.14 % ID/g and 0.34 % ID/g
- Ex vivo biodistribution Pancreas [1]: 0.91 % ID/g and 0.70 % ID/g and 1.30 % ID/g
- Ex vivo biodistribution Skin [1]: 0.16 % ID/g and 0.10 % ID/g and 0.27 % ID/g
- Ex vivo biodistribution Small intestine [1]: 7.75 % ID/g and 10.33 % ID/g and 17.40 % ID/g
- Ex vivo biodistribution Spleen [1]: 2.09 % ID/g and 1.91 % ID/g and 3.68 % ID/g
- Ex vivo biodistribution Stomach [1]: 0.46 % ID/g and 0.26 % ID/g and 0.58 % ID/g
